According to patent US20120220581A1, “IMIDAZO[1,2-b]PYRIDAZINE DERIVATIVES AND THEIR USE AS PDE10 INHIBITORS” (Janssen-Cilag, S.A., priority 2009, published 2012):
Read-outs that look alike come from different tables or passages of the source.

Legend:
[1] = molecular target: other members of the PDE family (Homo sapiens, UniProt O00408); experiment: In vitro PDE selectivity assay (SPA), other members of the PDE family (protocols in Table A); format: biochemical; settings: hPDE2A; read-out: PDE 2A (expressed as pIC50) (converted)
Method: Rat recombinant PDE10A (rPDE10A2) was expressed in Sf9 cells using a recombinant rPDE10A baculovirus construct. Cells were harvested after 48 h of infection and the rPDE10A protein was purified by metal chelate chromatography on Ni-sepharose 6FF. Tested compounds were dissolved and diluted in 100% DMSO to a concentration 100 fold of the final concentration in the assay. Compound dilutions (0.4 μl) were added in 384 well plates to 20 μl of incubation buffer (50 mM Tris pH 7.8, 8.3 mM MgCl2, 1.7 mM EGTA). 10 μl of rPDE10A enzyme in incubation buffer was added and the reaction was started by addition of 10 μl substrate to a final concentration of 60 nM cAMP and 0.008 μCi ^3H-cAMP. The reaction was incubated for 60 minutes at room temperature. After incubation, the reaction was stopped with 20 μl of stop solution consisting of 17.8 mg/ml PDE SPA (scintillation proximity assay) beads. After sedimentation of the beads during 30 minutes the radioactivity was measured in a Perkin Elmer Topcount scintillation counter and results were expressed as cpm. For blanc values the enzyme was omitted from the reaction and replaced by incubation buffer. Control values were obtained by addition of a final concentration of 1% DMSO instead of compound. The same assay principle is applied for the measurement of the affinity of the compound for other members of the PDE family with appropriate modifications in incubation buffer, substrate concentration, incubation time and stop solution. An overview of the different protocols is presented in table A. A best fit curve is fitted by a minimum sum of squares method to the plot of % of control value substracted with blanc value versus compound concentration and the half maximal inhibitory concentration (IC50) value is derived from this curve.
The compounds of the invention are generally selective for PDE10 compared to other PDEs and there are a few that also have affinity for PDE1B1, 4D3 and 5A3.

[2] = molecular target: T1, Rat recombinant PDE10A (rPDE10A2) (Rattus norvegicus, UniProt Q9QYJ6); experiment: In vitro assay PDE10A (SPA, 3H-cAMP); format: biochemical
T1 construct: inferred from the Ni metal chelate purification; made in house; host or cells: Sf9 insect cells (baculovirus)
T1 sequence (Q9QYJ6 1-794): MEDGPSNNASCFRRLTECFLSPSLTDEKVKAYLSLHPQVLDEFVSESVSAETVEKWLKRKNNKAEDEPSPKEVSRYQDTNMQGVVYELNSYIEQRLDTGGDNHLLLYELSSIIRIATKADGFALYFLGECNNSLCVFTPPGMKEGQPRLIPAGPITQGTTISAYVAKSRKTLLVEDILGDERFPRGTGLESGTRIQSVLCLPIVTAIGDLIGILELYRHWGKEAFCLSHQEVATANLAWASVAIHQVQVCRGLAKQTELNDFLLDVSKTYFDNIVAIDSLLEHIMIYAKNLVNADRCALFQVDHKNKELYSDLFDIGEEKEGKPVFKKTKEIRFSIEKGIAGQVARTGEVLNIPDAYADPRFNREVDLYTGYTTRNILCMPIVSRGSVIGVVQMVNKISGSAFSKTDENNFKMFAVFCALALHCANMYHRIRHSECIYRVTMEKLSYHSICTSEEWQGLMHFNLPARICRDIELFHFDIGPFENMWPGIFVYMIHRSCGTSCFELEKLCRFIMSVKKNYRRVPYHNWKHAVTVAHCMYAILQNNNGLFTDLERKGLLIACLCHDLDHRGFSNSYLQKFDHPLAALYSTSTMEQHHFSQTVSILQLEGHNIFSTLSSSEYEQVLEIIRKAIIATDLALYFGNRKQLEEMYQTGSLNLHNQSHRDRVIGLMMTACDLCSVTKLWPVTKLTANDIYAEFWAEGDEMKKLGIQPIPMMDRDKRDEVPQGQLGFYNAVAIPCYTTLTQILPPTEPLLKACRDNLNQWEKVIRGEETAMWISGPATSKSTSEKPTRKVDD
How it was run: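 Scintillation proximity read-out (cpm) of 3H-cAMP hydrolysis after 60 min at room temperature, with enzyme-free blanks and 1% DMSO controls. Enzyme was Sf9-expressed, Ni-sepharose-purified rat rPDE10A2; substrate 60 nM cAMP with tracer, buffer Tris pH 7.8 containing MgCl2 and EGTA.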

[3] = test system: apomorphine-induced stereotypy in rats; experiment: Apomorphine-induced stereotypy in rats (APO); format: in vivo; settings: Rattus norvegicus, n.d.: found not active at threshold dose 2.5 mg/kg or 10 mg/kg (a)
Method: Apomorphine (1.0 mg/kg, i.v.)-induced stereotypy (compulsive sniffing, licking, chewing) was scored every 5 min over the first hour after injection of apomorphine, following a 1 hour interval pre-treatment with the test compound. The score system was: (3) pronounced, (2) moderate, (1) slight, and (0) absent.

[4] = Table 4 in vitro selectivity, read-out: PDE 10A2 (expressed as pIC50) (converted)
[5] = pIC50 corresponds to the −log IC50 expressed in mol/L, read-out: PDE10A2 pIC50 (converted)

Sequence of other members of the PDE family (O00408 whole entry): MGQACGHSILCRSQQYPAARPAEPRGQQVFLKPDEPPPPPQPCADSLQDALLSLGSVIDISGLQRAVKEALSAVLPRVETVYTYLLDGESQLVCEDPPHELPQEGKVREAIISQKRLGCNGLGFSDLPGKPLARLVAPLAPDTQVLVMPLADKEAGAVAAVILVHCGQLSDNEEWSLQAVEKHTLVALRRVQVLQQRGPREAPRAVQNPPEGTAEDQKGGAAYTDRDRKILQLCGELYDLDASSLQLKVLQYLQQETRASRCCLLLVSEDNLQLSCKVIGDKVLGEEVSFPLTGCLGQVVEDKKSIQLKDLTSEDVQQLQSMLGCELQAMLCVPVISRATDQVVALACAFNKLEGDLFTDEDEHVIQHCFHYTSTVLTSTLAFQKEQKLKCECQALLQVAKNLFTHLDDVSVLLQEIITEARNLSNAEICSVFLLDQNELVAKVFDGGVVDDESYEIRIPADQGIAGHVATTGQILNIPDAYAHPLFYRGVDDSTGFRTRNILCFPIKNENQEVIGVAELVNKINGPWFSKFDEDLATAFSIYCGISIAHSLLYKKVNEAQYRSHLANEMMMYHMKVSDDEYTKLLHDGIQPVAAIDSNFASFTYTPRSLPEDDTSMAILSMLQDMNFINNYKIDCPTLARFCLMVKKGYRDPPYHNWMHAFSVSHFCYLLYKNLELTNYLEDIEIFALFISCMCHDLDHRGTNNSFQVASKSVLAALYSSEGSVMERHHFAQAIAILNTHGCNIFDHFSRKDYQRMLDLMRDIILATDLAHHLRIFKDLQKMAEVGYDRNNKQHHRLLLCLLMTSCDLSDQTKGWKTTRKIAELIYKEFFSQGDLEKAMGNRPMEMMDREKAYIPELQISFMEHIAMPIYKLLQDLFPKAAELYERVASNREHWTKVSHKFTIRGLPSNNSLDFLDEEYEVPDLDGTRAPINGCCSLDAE

SMILES	IC50 [1]	IC50 [2, 4]	IC50 [2, 5]	ED50 ([3]; not further tested)	ED50 ([3]; po, * not soluble, tested orally as a suspension)
Cc1cc(N2CCOCC2)c2nc(C3CC3)c(-c3ccc(N4CCNCC4)nc3)n2n1 [compound 100, 2-cyclopropyl-6-methyl-8-(4-morpholinyl)-3-[6-(1-piperazinyl)-3-pyridinyl]-imidazo[1,2-b]pyridazine]	> 10000 nM	724 nM	724 nM	–	–
c1cc(N2CCOCC2)c2ncc(-c3ccc(N4CCOCC4)nc3)n2n1 [compound 144, 8-(4-morpholinyl)-3-[6-(4-morpholinyl)-3-pyridinyl]-imidazo[1,2-b]pyridazine]	> 10000 nM	324 nM	324 nM	–	–
COCCOc1ccc(-c2c(C3CC3)nc3c(N4CCOCC4)cc(C)nn23)cn1 [compound 74, 2-cyclopropyl-3-[6-(2-methoxyethoxy)-3-pyridinyl]-6-methyl-8-(4-morpholinyl)-imidazo[1,2-b]pyridazine]	> 10000 nM	589 nM	589 nM	–	–
COCCc1ccc(-c2cnc3c(-c4ccncc4)ccnn23)cn1 [compound 57, 3-[6-(2-methoxyethyl)-3-pyridinyl]-8-(4-pyridinyl)-imidazo[1,2-b]pyridazine]	> 10000 nM	427 nM	427 nM	–	–
COCCc1ccc(-c2c(C3CC3)nc3c(N4CCOCC4)cc(C(F)(F)F)nn23)cn1 [compound 85, 2-cyclopropyl-3-[6-(2-methoxyethyl)-3-pyridinyl]-8-(4-morpholinyl)-6-(trifluoromethyl)-imidazo[1,2-b]pyridazine]	> 10000 nM	661 nM	661 nM	–	–
Cc1nc2c(N3CCOCC3)cc(C3CC3)nn2c1-c1ccc(N2CCOCC2)nc1 [compound 94, 6-cyclopropyl-2-methyl-8-(4-morpholinyl)-3-[6-(4-morpholinyl)-3-pyridinyl]-imidazo[1,2-b]pyridazine]	> 10000 nM	380 nM	380 nM	–	–
c1cc(-c2ccnn3c(-c4ccc(N5CCOCC5)nc4)c(C4CC4)nc23)ccn1 [compound 46, 2-cyclopropyl-3-[6-(4-morpholinyl)-3-pyridinyl]-8-(4-pyridinyl)-imidazo[1,2-b]pyridazine]	–	–	17.4 nM	> 2.5 mg/kg	–
Cc1cc(-c2ccncc2)c2nc(C)c(-c3ccc(N4CCOCC4)nc3)n2n1 [compound 70, 2,6-dimethyl-3-[6-(4-morpholinyl)-3-pyridinyl]-8-(4-pyridinyl)-imidazo[1,2-b]pyridazine]	–	–	126 nM	> 2.5 mg/kg	–
CCc1ccc(-c2c(C3CC3)nc3c(-c4ccncc4)ccnn23)cn1 [compound 87, 2-cyclopropyl-3-(6-ethyl-3-pyridinyl)-8-(4-pyridinyl)-imidazo[1,2-b]pyridazine]	–	–	21.9 nM	> 2.5 mg/kg	–
COCCc1ccc(-c2cnc3c(N4CCOCC4)ccnn23)cn1 [compound 11, 3-[6-(2-methoxyethyl)-3-pyridinyl]-8-(4-morpholinyl)-imidazo[1,2-b]pyridazine]	–	–	195 nM	> 2.5 mg/kg	–
Cc1nc2c(N3CCOCC3)ccnn2c1-c1ccc(CC(C)C)nc1 [compound 104, 2-methyl-3-[6-(2-methylpropyl)-3-pyridinyl]-8-(4-morpholinyl)-imidazo[1,2-b]pyridazine]	–	–	53.7 nM	> 2.5 mg/kg	–
COCCOc1cncc(-c2c(C)nc3c(-c4ccncc4)ccnn23)c1 [compound 149, 3-[5-(2-methoxyethoxy)-3-pyridinyl]-2-methyl-8-(4-pyridinyl)-imidazo[1,2-b]pyridazine]	–	–	151 nM	> 2.5 mg/kg	–
COC(C)(C)Cc1ccc(-c2c(C3CC3)nc3c(-c4ccncc4)cc(C)nn23)cn1 [compound 55, 2-cyclopropyl-3-[6-(2-methoxy-2-methylpropyl)-3-pyridinyl]-6-methyl-8-(4-pyridinyl)-imidazo[1,2-b]pyridazine]	–	–	38 nM	> 2.5 mg/kg	–
CO[C@H]1CCN(c2ccc(-c3c(C)nc4c(N5CCOCC5)ccnn34)cn2)C1 [compound 113, 3-[6-[(3S)-3-methoxy-1-pyrrolidinyl]-3-pyridinyl]-2-methyl-8-(4-morpholinyl)-imidazo[1,2-b]pyridazine]	–	–	158 nM	> 2.5 mg/kg	–
COC(C)(C)Cc1ccc(-c2c(C)nc3c(N4CCOCC4)cc(C)nn23)cn1 [compound 47, 3-[6-(2-methoxy-2-methylpropyl)-3-pyridinyl]-2,6-dimethyl-8-(4-morpholinyl)-imidazo[1,2-b]pyridazine]	–	–	91.2 nM	> 2.5 mg/kg	–
CCc1ccc(-c2c(C)nc3c(-c4ccncc4)ccnn23)cn1 [compound 83, 3-(6-ethyl-3-pyridinyl)-2-methyl-8-(4-pyridinyl)-imidazo[1,2-b]pyridazine]	–	–	51.3 nM	> 2.5 mg/kg	–
COCCn1cc(-c2c(C)nc3c(-c4ccncc4)cc(C4CC4)nn23)cn1 [compound 126, 6-cyclopropyl-3-[1-(2-methoxyethyl)-1H-pyrazol-4-yl]-2-methyl-8-(4-pyridinyl)-imidazo[1,2-b]pyridazine]	–	–	50.1 nM	> 2.5 mg/kg	–
c1cc(N2CCOCC2)c2ncc(-c3ccc(C4CCOCC4)nc3)n2n1 [compound 82, 8-(4-morpholinyl)-3-[6-(tetrahydro-2H-pyran-4-yl)-3-pyridinyl]-imidazo[1,2-b]pyridazine]	–	–	145 nM	> 2.5 mg/kg	–
COC(C)(C)c1ccc(-c2c(C)nc3c(N4CCOCC4)ccnn23)cn1 [compound 6, 3-[6-(1-methoxy-1-methylethyl)-3-pyridinyl]-2-methyl-8-(4-morpholinyl)-imidazo[1,2-b]pyridazine]	–	–	23.4 nM	> 2.5 mg/kg	–
Cc1nc2c(N3CCOCC3)ccnn2c1-c1cn[nH]c1 [compound 116, 2-methyl-8-(4-morpholinyl)-3-(1H-pyrazol-4-yl)-imidazo[1,2-b]pyridazine]	–	–	132 nM	–	> 10 mg/kg
COC(C)(C)Cn1cc(-c2c(C3CC3)nc3c(N4CCOCC4)ccnn23)cn1 [compound 38, 2-cyclopropyl-3-[1-(2-methoxy-2-methylpropyl)-1H-pyrazol-4-yl]-8-(4-morpholinyl)-imidazo[1,2-b]pyridazine]	–	–	28.8 nM	> 2.5 mg/kg	–
Cc1nc2c(N3CCOCC3)ccnn2c1-c1ccnc(CC(C)C)c1 [compound 105, 2-methyl-3-[2-(2-methylpropyl)-4-pyridinyl]-8-(4-morpholinyl)-imidazo[1,2-b]pyridazine]	–	–	25.1 nM	> 2.5 mg/kg	–
COCCOc1ccc(-c2c(C3CC3)nc3c(-c4ccncc4)ccnn23)cn1 [compound 44, 2-cyclopropyl-3-[6-(2-methoxyethoxy)-3-pyridinyl]-8-(4-pyridinyl)-imidazo[1,2-b]pyridazine]	–	–	45.7 nM	> 2.5 mg/kg	–
